{"source": "ChEMBL document CHEMBL5620428", "about": "“Discovery of tetrahydroisoquinolineindole derivatives as first dual PRMT5 inhibitors/hnRNP E1 upregulators: Design, synthesis and biological evaluation” (Eur J Med Chem, 2023)", "key": {"[1]": {"test": "AUC (0 to t) in Sprague-Dawley rat at 10 mg/kg, po measured upto 24 hrs by LC-MS/MS analysis", "assay_type": "ADME, organism-based", "conditions": "in vivo"}, "[2]": {"test": "Metabolic stability in rat liver microsome assessed as half life measured upto 4 hrs in presence of NADPH by LC-MS/MS analysis", "assay_type": "ADME", "conditions": "liver microsomes"}, "[3]": {"test": "Clearance in Sprague-Dawley rat at 2 mg/kg, iv measured upto 24 hrs by LC-MS/MS analysis", "assay_type": "ADME, organism-based", "conditions": "in vivo"}, "[4]": {"test": "Antiproliferative activity against human L02 cells assessed as inhibition of cell growth incubated for 24 hrs by SRB assay", "assay_type": "toxicity, cell-based"}, "A549 [5]": {"system": "A549", "test": "Anticancer activity against human A549 cells assessed as decrease in cell number incubated for 24 hrs by SRB assay", "assay_type": "functional, cell-based", "conditions": "dose 12.5-50 µM"}, "MDA-MB-231": {"system": "MDA-MB-231", "test": "Antiproliferative activity against human MDA-MB-231 cells assessed as inhibition of cell growth incubated for 24 hrs by SRB assay", "assay_type": "functional, cell-based", "conditions": "MDA-MB-231, 24 h"}, "A549 [6]": {"system": "A549", "test": "Induction of apoptosis in human A549 cells assessed as nuclear fragmentation incubated for 24 hrs by Hoechst 33342 staining based analysis", "assay_type": "functional, cell-based", "conditions": "dose 12.5-50 µM"}, "[7]": {"test": "Cmax in Sprague-Dawley rat at 2 mg/kg, iv measured upto 24 hrs by LC-MS/MS analysis", "assay_type": "ADME, organism-based", "conditions": "in vivo"}, "[8]": {"target": "Protein arginine N-methyltransferase 5 (Homo sapiens, UniProt O14744)", "sequence (O14744 whole entry)": "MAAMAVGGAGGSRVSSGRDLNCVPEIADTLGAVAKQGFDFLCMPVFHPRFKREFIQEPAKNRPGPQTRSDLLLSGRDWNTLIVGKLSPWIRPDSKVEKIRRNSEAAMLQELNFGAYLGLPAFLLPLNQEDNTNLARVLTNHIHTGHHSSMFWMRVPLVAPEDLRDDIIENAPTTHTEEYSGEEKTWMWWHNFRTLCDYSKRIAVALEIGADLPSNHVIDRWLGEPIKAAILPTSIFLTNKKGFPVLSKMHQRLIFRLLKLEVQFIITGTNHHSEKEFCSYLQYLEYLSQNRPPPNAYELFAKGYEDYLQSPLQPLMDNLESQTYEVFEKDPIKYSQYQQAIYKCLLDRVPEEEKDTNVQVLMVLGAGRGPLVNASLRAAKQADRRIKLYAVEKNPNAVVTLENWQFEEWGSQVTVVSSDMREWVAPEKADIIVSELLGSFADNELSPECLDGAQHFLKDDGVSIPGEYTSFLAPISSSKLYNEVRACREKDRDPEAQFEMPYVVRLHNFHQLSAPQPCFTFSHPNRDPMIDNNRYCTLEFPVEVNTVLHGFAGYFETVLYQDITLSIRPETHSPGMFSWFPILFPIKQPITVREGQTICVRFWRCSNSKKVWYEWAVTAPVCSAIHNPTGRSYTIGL", "test": "Inhibition of PRMT5 (unknown origin)"}, "[9]": {"target": "Protein arginine N-methyltransferase 1 (Homo sapiens, UniProt Q99873)", "sequence (Q99873 whole entry)": "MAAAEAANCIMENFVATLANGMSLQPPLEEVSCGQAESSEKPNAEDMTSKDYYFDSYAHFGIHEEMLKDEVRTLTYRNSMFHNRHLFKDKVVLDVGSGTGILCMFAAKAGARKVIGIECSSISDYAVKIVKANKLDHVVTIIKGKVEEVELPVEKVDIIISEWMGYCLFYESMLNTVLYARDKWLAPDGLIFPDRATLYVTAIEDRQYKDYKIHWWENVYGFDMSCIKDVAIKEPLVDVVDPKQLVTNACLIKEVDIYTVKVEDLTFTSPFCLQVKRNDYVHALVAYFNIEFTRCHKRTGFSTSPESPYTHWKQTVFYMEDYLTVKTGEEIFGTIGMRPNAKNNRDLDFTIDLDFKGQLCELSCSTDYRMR", "test": "Inhibition of PRMT1 (unknown origin)"}, "[10]": {"test": "AUC (0 to t) in Sprague-Dawley rat at 2 mg/kg, iv measured upto 24 hrs by LC-MS/MS analysis", "assay_type": "ADME, organism-based", "conditions": "in vivo"}, "[11]": {"test": "Half life in Sprague-Dawley rat at 2 mg/kg, iv measured upto 24 hrs by LC-MS/MS analysis", "assay_type": "ADME, organism-based", "conditions": "in vivo"}, "A549 [12]": {"system": "A549", "test": "Induction of apoptosis in human A549 cells at 2.5 to 50 uM incubated for 24 hrs by Hoechst 33342 staining based analysis", "assay_type": "functional", "conditions": "dose 2.5-50 µM"}, "A549 [13]": {"system": "A549", "test": "Induction of apoptosis in human A549 cells transfected in hnRNP E1 siRNA assessed as reduction in cell number incubated for 24 hrs by Hoechst 33258 staining based analysis", "assay_type": "functional"}, "A549 [14]": {"system": "A549", "test": "Inhibition of cell migration human A549 cells transfected with hnRNP E1 siRNA incubated upto 12 hrs by wound healing assay", "assay_type": "functional, cell-based"}, "[15]": {"test": "Cmax in Sprague-Dawley rat at 10 mg/kg, po measured upto 24 hrs by LC-MS/MS analysis", "assay_type": "ADME, organism-based", "conditions": "in vivo"}, "A549 [16]": {"system": "A549", "test": "Inhibition of cell migration human A549 cells assessed as decrease in migration distance at 12.5 to 25 uM incubated upto 12 hrs by wound healing assay", "assay_type": "functional, cell-based", "conditions": "dose 12.5-25 µM"}, "A549 [17]": {"system": "A549", "test": "Upregulation of hnRNP E1 gene expression in human A549 cells at 12.5 to 50 uM incubated for 24 hrs by Western blot analysis", "assay_type": "functional, cell-based", "conditions": "dose 12.5-50 µM"}, "HepG2": {"system": "HepG2", "test": "Antiproliferative activity against human HepG2 cells assessed as inhibition of cell growth incubated for 24 hrs by SRB assay", "assay_type": "functional, cell-based", "conditions": "HepG2, 24 h"}, "[18]": {"test": "AUC (0 to infinity) in Sprague-Dawley rat at 2 mg/kg, iv measured upto 24 hrs by LC-MS/MS analysis", "assay_type": "ADME, organism-based", "conditions": "in vivo"}, "MCF7": {"system": "MCF7", "test": "Antiproliferative activity against human MCF7 cells assessed as inhibition of cell growth incubated for 24 hrs by SRB assay", "assay_type": "functional, cell-based", "conditions": "MCF7, 24 h"}, "[19]": {"test": "Tmax in Sprague-Dawley rat at 10 mg/kg, po measured upto 24 hrs by LC-MS/MS analysis", "assay_type": "ADME, organism-based", "conditions": "in vivo"}, "[20]": {"test": "Bioavailability in Sprague-Dawley rat at 2 mg/kg, iv measured upto 24 hrs by LC-MS/MS analysis", "assay_type": "ADME, organism-based", "conditions": "in vivo"}, "[21]": {"target": "T1, Histone-arginine methyltransferase CARM1 (Homo sapiens, UniProt Q86X55)", "T1 sequence (Q86X55 whole entry)": "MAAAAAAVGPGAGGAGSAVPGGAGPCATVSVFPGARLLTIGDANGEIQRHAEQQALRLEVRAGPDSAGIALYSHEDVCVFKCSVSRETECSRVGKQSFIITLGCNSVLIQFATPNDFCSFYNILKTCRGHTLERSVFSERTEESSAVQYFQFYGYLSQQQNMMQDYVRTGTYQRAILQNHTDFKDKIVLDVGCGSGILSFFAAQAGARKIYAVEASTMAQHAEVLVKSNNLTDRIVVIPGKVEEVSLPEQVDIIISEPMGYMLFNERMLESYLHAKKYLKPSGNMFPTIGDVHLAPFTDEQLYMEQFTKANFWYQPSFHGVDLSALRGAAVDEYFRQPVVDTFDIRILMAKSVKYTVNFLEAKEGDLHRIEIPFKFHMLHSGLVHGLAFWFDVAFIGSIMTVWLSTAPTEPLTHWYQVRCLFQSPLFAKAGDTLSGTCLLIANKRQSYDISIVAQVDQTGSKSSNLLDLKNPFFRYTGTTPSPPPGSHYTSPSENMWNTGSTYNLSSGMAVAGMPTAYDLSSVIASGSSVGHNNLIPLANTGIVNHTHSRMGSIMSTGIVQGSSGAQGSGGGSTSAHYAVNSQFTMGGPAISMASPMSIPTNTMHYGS", "test": "Inhibition of PRMT4 (unknown origin)"}, "[22]": {"test": "Volume of distribution in Sprague-Dawley rat at 2 mg/kg, iv measured upto 24 hrs by LC-MS/MS analysis", "assay_type": "ADME, organism-based", "conditions": "in vivo"}, "A549 [23]": {"system": "A549", "test": "Antiproliferative activity against human A549 cells assessed as inhibition of cell growth incubated for 24 hrs by SRB assay", "assay_type": "functional, cell-based", "conditions": "A549, 24 h"}, "[24]": {"test": "Oral bioavailability in Sprague-Dawley rat at 10 mg/kg measured upto 24 hrs by LC-MS/MS analysis", "assay_type": "ADME, organism-based", "conditions": "in vivo"}, "[25]": {"test": "AUC (0 to infinity) in Sprague-Dawley rat at 10 mg/kg, po measured upto 24 hrs by LC-MS/MS analysis", "assay_type": "ADME, organism-based", "conditions": "in vivo"}, "A549 [26]": {"system": "A549", "test": "Antiproliferative activity against human A549 cells assessed as reduction in cell viability at 25 uM incubated for 24 hrs by SRB assay", "assay_type": "functional, cell-based"}, "[27]": {"test": "Metabolic stability in human liver microsome assessed as half life measured upto 4 hrs in presence of NADPH by LC-MS/MS analysis", "assay_type": "ADME", "conditions": "liver microsomes"}, "[28]": {"test": "Half life in Sprague-Dawley rat at 10 mg/kg, po measured upto 24 hrs by LC-MS/MS analysis", "assay_type": "ADME, organism-based", "conditions": "in vivo"}}, "note": "Active and inactive are the calls of the source. No cut-off for these calls is given here."}
{"smiles": "COc1ccc2c(ccn2C[C@H](O)CN2CCc3ccccc3C2)c1", "values": [{"measurement": "AUC(0-t) at 24 h", "setting": "[1]", "value": 1970, "unit": "ng·h/mL"}, {"measurement": "half-life", "setting": "[2]", "value": 0.342, "unit": "h"}, {"measurement": "clearance", "setting": "[3]", "value": 26.7, "unit": "mL/min/kg"}, {"measurement": "IC50 at 24 h", "setting": "[4]", "value": "> 100", "unit": "µM"}, {"measurement": "Activity", "setting": "A549 [5]", "value": "Dose-Dependent Effect"}, {"measurement": "IC50", "setting": "MDA-MB-231", "value": 20.5, "unit": "µM"}, {"measurement": "Activity", "setting": "A549 [6]", "value": "Dose-Dependent Effect"}, {"measurement": "Cmax", "setting": "[7]", "value": 182, "unit": "ng/mL"}, {"measurement": "IC50", "setting": "[8]", "value": 0.31, "unit": "µM"}, {"measurement": "IC50", "setting": "[9]", "value": "> 20", "unit": "µM"}, {"measurement": "AUC(0-t) at 24 h", "setting": "[10]", "value": 1250, "unit": "ng·h/mL"}, {"measurement": "half-life", "setting": "[11]", "value": 4.1, "unit": "h"}, {"measurement": "Activity", "setting": "A549 [12]", "value": 68, "unit": "%"}, {"measurement": "Activity", "setting": "A549 [13]", "value": "Active"}, {"measurement": "Activity", "setting": "A549 [14]", "value": "inactive"}, {"measurement": "Cmax", "setting": "[15]", "value": 160, "unit": "ng/mL"}, {"measurement": "Activity", "setting": "A549 [16]", "value": "Active"}, {"measurement": "Activity", "setting": "A549 [17]", "value": "Active"}, {"measurement": "IC50", "setting": "HepG2", "value": 27.7, "unit": "µM"}, {"measurement": "AUC(0-inf)", "setting": "[18]", "value": 1280, "unit": "ng·h/mL"}, {"measurement": "IC50", "setting": "MCF7", "value": 23.6, "unit": "µM"}, {"measurement": "Tmax", "setting": "[19]", "value": 2.7, "unit": "h"}, {"measurement": "F", "setting": "[20]", "value": 100, "unit": "%"}, {"measurement": "IC50", "setting": "[21]", "value": "> 20", "unit": "µM"}, {"measurement": "Vd", "setting": "[22]", "value": 9.3, "unit": "L/kg"}, {"measurement": "IC50", "setting": "A549 [23]", "value": 19.1, "unit": "µM"}, {"measurement": "bioavailability", "setting": "[24]", "value": 31.4, "unit": "%"}, {"measurement": "AUC(0-inf)", "setting": "[25]", "value": 2180, "unit": "ng·h/mL"}, {"measurement": "Activity", "setting": "A549 [26]", "value": "Active"}, {"measurement": "half-life", "setting": "[27]", "value": 2.21, "unit": "h"}, {"measurement": "half-life", "setting": "[28]", "value": 6.7, "unit": "h"}]}
